Values quoted from earlier work, collected in PubChem BioAssay AID1259409 (Chemical Carcinogenesis Research Information System (CCRIS), 2018).

Test system: rodent chemically induced tumor inhibition, incidence and multiplicity
Assay: CCRIS tumor inhibitor studies
Details: 64091-91-4, Promoter: NONE USED

For `S=C=NCCc1ccccc1`, the “tumour outcome (control, treated, inhibition, significance)” value (Carcinogen: 4-(METHYLNITROSAMINO)-1-(3-PYRIDYL)-1-BUTANONE, Dose [Inhibitor]: 3 UMOL/G DIET BEGINNING 1 WK PRIOR TO FIRST CARCINOGEN DOSE (STUDY DURATION: 104 WK), Route [Inhibitor]: ORAL, Species: RAT, Strain/Sex: F344/MALE, Target Tissue: Type of Lesion: HEMATOPOIETIC SYSTEM: LEUKEMIA OR LYMPHOMA, Dose [Carcinogen]: 1.76 MG/KG 3/WK FOR 20 WK) is given as 5/40 (13%), 3/40 (8%), 38%, not calculated, the “tumour outcome (control, treated, inhibition, significance)” value (Carcinogen: 4-(METHYLNITROSAMINO)-1-(3-PYRIDYL)-1-BUTANONE, Dose [Inhibitor]: 3 UMOL/G DIET BEGINNING 1 WK PRIOR TO FIRST CARCINOGEN DOSE (STUDY DURATION: 104 WK), Route [Inhibitor]: ORAL, Species: RAT, Strain/Sex: F344/MALE, Target Tissue: Type of Lesion: LUNG: ADENOMA OR CARCINOMA, Dose [Carcinogen]: 1.76 MG/KG 3/WK FOR 20 WK) is given as 32/40 (80%), 17/40 (43%), 46%, p<0.05 and the “tumour outcome (control, treated, inhibition, significance)” value (Carcinogen: 4-(METHYLNITROSAMINO)-1-(3-PYRIDYL)-1-BUTANONE, Dose [Inhibitor]: 3 UMOL/G DIET BEGINNING 1 WK PRIOR TO FIRST CARCINOGEN DOSE (STUDY DURATION: 104 WK), Route [Inhibitor]: ORAL, Species: RAT, Strain/Sex: F344/MALE, Target Tissue: Type of Lesion: LUNG: ADENOMA OR HEPATOCELLULAR CARCINOMA, Dose [Carcinogen]: 1.76 MG/KG 3/WK FOR 20 WK) is given as 15/40 (38%), 14/40 (35%), 8%, not calculated. For the same molecule, the “tumour outcome (control, treated, inhibition, significance)” value (Carcinogen: 4-(METHYLNITROSAMINO)-1-(3-PYRIDYL)-1-BUTANONE, Dose [Inhibitor]: 3 UMOL/G DIET BEGINNING 1 WK PRIOR TO FIRST CARCINOGEN DOSE (STUDY DURATION: 104 WK), Route [Inhibitor]: ORAL, Species: RAT, Strain/Sex: F344/MALE, Target Tissue: Type of Lesion: MAMMARY GLAND: ADENOCARCINOMA OR FIBROADENOMA OR FIBROMA, Dose [Carcinogen]: 1.76 MG/KG 3/WK FOR 20 WK) was 5/40 (13%), 0/40 (0%), 100%, not calculated, the “tumour outcome (control, treated, inhibition, significance)” value (Carcinogen: 4-(METHYLNITROSAMINO)-1-(3-PYRIDYL)-1-BUTANONE, Dose [Inhibitor]: 3 UMOL/G DIET BEGINNING 1 WK PRIOR TO FIRST CARCINOGEN DOSE (STUDY DURATION: 104 WK), Route [Inhibitor]: ORAL, Species: RAT, Strain/Sex: F344/MALE, Target Tissue: Type of Lesion: NASAL CAVITY: SQUAMOUS CELL PAPILLOMA OR TRANSITIONAL-CELL PAPILLOMA OR POLYP OR SQUAMOUS CELL CARCINOMA, Dose [Carcinogen]: 1.76 MG/KG 3/WK FOR 20 WK) was 11/40 (28%), 7/40 (18%), 36%, not calculated and the “tumour outcome (control, treated, inhibition, significance)” value (Carcinogen: 4-(METHYLNITROSAMINO)-1-(3-PYRIDYL)-1-BUTANONE, Dose [Inhibitor]: 3 UMOL/G DIET BEGINNING 1 WK PRIOR TO FIRST CARCINOGEN DOSE (STUDY DURATION: 104 WK), Route [Inhibitor]: ORAL, Species: RAT, Strain/Sex: F344/MALE, Target Tissue: Type of Lesion: PANCREAS: EXOCRINE ADENOCARCINOMA OR EXOCRINE ADENOMA, Dose [Carcinogen]: 1.76 MG/KG 3/WK FOR 20 WK) was 1/40 (3%), 5/40 (13%), -333%, not calculated. For the same molecule, the “tumour outcome (control, treated, inhibition, significance)” value (Carcinogen: 4-(METHYLNITROSAMINO)-1-(3-PYRIDYL)-1-BUTANONE, Dose [Inhibitor]: 3 UMOL/G DIET BEGINNING 1 WK PRIOR TO FIRST CARCINOGEN DOSE (STUDY DURATION: 104 WK), Route [Inhibitor]: ORAL, Species: RAT, Strain/Sex: F344/MALE, Target Tissue: Type of Lesion: PERITONEUM: MESOTHELIOMA, Dose [Carcinogen]: 1.76 MG/KG 3/WK FOR 20 WK) was 1/40 (3%), 2/40 (5%), -67%, not calculated, the “tumour outcome (control, treated, inhibition, significance)” value (Carcinogen: 4-(METHYLNITROSAMINO)-1-(3-PYRIDYL)-1-BUTANONE, Dose [Inhibitor]: 3 UMOL/G DIET BEGINNING 1 WK PRIOR TO FIRST CARCINOGEN DOSE (STUDY DURATION: 104 WK), Route [Inhibitor]: ORAL, Species: RAT, Strain/Sex: F344/MALE, Target Tissue: Type of Lesion: STOMACH: SARCOMA OR PAPILLOMA, Dose [Carcinogen]: 1.76 MG/KG 3/WK FOR 20 WK) was 5/40 (13%), 2/40 (5%), 62%, not calculated and the “tumour outcome (control, treated, inhibition, significance)” value (Carcinogen: 4-(METHYLNITROSAMINO)-1-(3-PYRIDYL)-1-BUTANONE, Dose [Inhibitor]: 3 UMOL/G DIET BEGINNING 1 WK PRIOR TO FIRST CARCINOGEN DOSE (STUDY DURATION: 104 WK), Route [Inhibitor]: ORAL, Species: RAT, Strain/Sex: F344/MALE, Target Tissue: Type of Lesion: TESTES: TUMOR, Dose [Carcinogen]: 1.76 MG/KG 3/WK FOR 20 WK) was 31/40 (78%), 31/40 (78%), 0%. The “tumour outcome (control, treated, inhibition, significance)” value (Carcinogen: 4-(METHYLNITROSAMINO)-1-(3-PYRIDYL)-1-BUTANONE, Dose [Inhibitor]: 3 UMOL/G DIET BEGINNING 1 WK PRIOR TO FIRST CARCINOGEN DOSE (STUDY DURATION: 104 WK), Route [Inhibitor]: ORAL, Species: RAT, Strain/Sex: F344/MALE, Target Tissue: Type of Lesion: THYROID: MALIGNANT TUMOR OR BENIGN TUMOR, Dose [Carcinogen]: 1.76 MG/KG 3/WK FOR 20 WK) was 1/40 (3%), 3/40 (8%), -166%, not calculated, the “tumour outcome (control, treated, inhibition, significance)” value (Carcinogen: 4-(METHYLNITROSAMINO)-1-(3-PYRIDYL)-1-BUTANONE, Dose [Inhibitor]: 5 UMOL/D FOR 4 CONSECUTIVE DAYS (STUDY DURATION: 16 WK), Route [Inhibitor]: GAVAGE, Species: MOUSE, Strain/Sex: STRAIN-A/FEMALE, Target Tissue: Type of Lesion: LUNG: ADENOMA, Dose [Carcinogen]: 10 UMOL ONCE 2 HR POST LAST AGENT DOSE) was 30/30 (100%), 18/20 (89%), 11%, not calculated and the “tumour outcome (control, treated, inhibition, significance)” value (Carcinogen: 4-(METHYLNITROSAMINO)-1-(3-PYRIDYL)-1-BUTANONE, Dose [Inhibitor]: 25 UMOL/D FOR 4 CONSECUTIVE DAYS (STUDY DURATION: 16 WK), Route [Inhibitor]: GAVAGE, Species: MOUSE, Strain/Sex: STRAIN-A/FEMALE, Target Tissue: Type of Lesion: LUNG: ADENOMA, Dose [Carcinogen]: 10 UMOL ONCE 2 HR POST LAST AGENT DOSE) was 30/30 (100%), 6/20 (30%), 70%, p<0.01. The “tumour outcome (control, treated, inhibition, significance)” value (Carcinogen: 4-(N-NITROSOMETHYLAMINO)-1-(3-PYRIDYL)-1-BUTANONE, Dose [Inhibitor]: 0, 3 UMOL/G DIET BEGINNING 1 WK PRIOR TO CARCINOGEN TREATMENT AND CONTINUING FOR 21 WK (STUDY DURATION: 104 WK), Route [Inhibitor]: ORAL, Species: RAT, Strain/Sex: F344/MALE, Target Tissue: Type of Lesion: LIVER: ADENOMA, Dose [Carcinogen]: 1.76 MG/KG 3/WK FOR 20 WK) was 12/40 (30%), 9/40 (23%), 23%, not calculated, the “tumour outcome (control, treated, inhibition, significance)” value (Carcinogen: 4-(N-NITROSOMETHYLAMINO)-1-(3-PYRIDYL)-1-BUTANONE, Dose [Inhibitor]: 0, 3 UMOL/G/DIET BEGINNING 1 WK PRIOR TO CARCINOGEN TREATMENT AND CONTINUING FOR 21 WK (STUDY DURATION: 104 WK), Route [Inhibitor]: ORAL, Species: RAT, Strain/Sex: F344/MALE, Target Tissue: Type of Lesion: LIVER: CARCINOMA, Dose [Carcinogen]: 1.76 MG/KG 3/WK FOR 20 WK) was 3/40 (8%), 5/40 (13%), -62%, not calculated and the “tumour outcome (control, treated, inhibition, significance)” value (Carcinogen: 4-(N-NITROSOMETHYLAMINO)-1-(3-PYRIDYL)-1-BUTANONE, Dose [Inhibitor]: 0, 3 UMOL/G/DIET BEGINNING 1 WK PRIOR TO CARCINOGEN TREATMENT AND CONTINUING FOR 21 WK (STUDY DURATION: 104 WK), Route [Inhibitor]: ORAL, Species: RAT, Strain/Sex: F344/MALE, Target Tissue: Type of Lesion: LUNG: ADENOMA, Dose [Carcinogen]: 1.76 MG/KG 3/WK FOR 20 WK) was 8/40 (20%), 5/40 (13%), 35%, not calculated. For the same molecule, the “tumour outcome (control, treated, inhibition, significance)” value (Carcinogen: 4-(N-NITROSOMETHYLAMINO)-1-(3-PYRIDYL)-1-BUTANONE, Dose [Inhibitor]: 0, 3 UMOL/G/DIET BEGINNING 1 WK PRIOR TO CARCINOGEN TREATMENT AND CONTINUING FOR 21 WK (STUDY DURATION: 104 WK), Route [Inhibitor]: ORAL, Species: RAT, Strain/Sex: F344/MALE, Target Tissue: Type of Lesion: LUNG: CARCINOMA, Dose [Carcinogen]: 1.76 MG/KG 3/WK FOR 20 WK) was 24/40 (60%), 12/40 (30%), 50%, not calculated.
